Experimental data: US10980808B2, “Calmodulin inhibitors, Chk2 inhibitors and RSK inhibitors for the treatment of ribosomal disorders and ribosomapathies” (THE CHILDREN'S MEDICAL CENTER CORPORATION, priority 2016, dated 2021)
“Also recorded” adds a separate entry of the source.

Key:
[1] = system: rps29−/− zebrafish embryos; experiment: hemoglobin (benzidine staining) rescue in rps29-/- zebrafish embryos; format: in vivo; conditions: for hemoglobin (Hb) in rps29−/− embryos: benzidine staining; for Hb increase at low concentrations: rps29−/− embryos, compared with positive control fluphenazine / with DB-4-089
[2] = system: rps29−/− zebrafish embryos; experiment: chemical screen: rescue of morphological, hematopoietic and endothelial defects of rps29-/- embryo; format: in vivo
[3] = system: RPS19 shRNA CD34+ peripheral blood mononuclear cells; experiment: primary human in vitro differentiation model of DBA: CD34+ PBMCs with RPS19 shRNA, CD71+ flow cytometry; format: cell-based; conditions: treated once for 5 days
From the text: FIG. 40 is a schematic of the testing of novel phenothiazine derivatives in a human in vitro model of DBA. Primary human peripheral blood mononuclear cells (PBMCs) are transduced with RPS19-GFP shRNA to make a ribiosomal protein deficiency. Cells are transferred to eyrthroid differentiation media and treated once for 5 days with Drug. Cells are harvested and analyzed for erythroid precursors by flow cytomety for CD71^+ cells.
We next tested three derivatives in our primary human in vitro differentiation model of DBA. To do this we expanded CD34+ peripheral blood mononuclear cells in culture for 2 days and induced ribosomal protein deficiency with a lentirvirus containing RPS19 shRNA (FIG. 40). After 3 days the cells are placed into erythroid differentiation media with or without the novel derivatives and cultured for 5 days. Erythroid differentiation is then assessed by flow cytometry analysis for the transferrin receptor, CD71+. […] In addition, the novel derivatives increased the absolute erythroid number compared to DMSO treated (FIG. 41). […] A table summarizing the activity of the compounds is found in FIG. 43.

[4] = system: 6 dpf WT zebrafish; experiment: zebrafish behavior tracking (proxy for BBB permeation); conditions: for zebrafish movement / swimming behavior vs DMSO: 6 dpf, drug in fish water, tracked 1-2 h
[5] = target: RSK1 (Homo sapiens, UniProt Q15418); conditions: in vitro; cited from earlier work
[6] = target: RSK3 (Homo sapiens, UniProt Q15349); conditions: in vitro; cited from earlier work
[7] = target: RSK2 (Homo sapiens, UniProt P51812); conditions: in vitro; cited from earlier work
[8] = target: RSK4 (Homo sapiens, UniProt Q9UK32); conditions: in vitro; cited from earlier work
[9] = system: RPS19 deficient CD34 cells; experiment: phosphorylation in RPS19 deficient CD34 cells; format: cell-based, human
From the text: FIG. 18 is a schematic of the assay of RSK activation in human cells. The most relevant in vitro model in the blood field is primary human cells-such as Peripheral blood mononuclear cells (PBMCs). […] FIG. 19B schematic ov RP deficiency. TFP treatment reduces P-RPS6 and P-p53 […] and p53 total levels.

[10] = system: Rps19 deficient mice; experiment: DBA dox-inducible RPS19 knockdown mouse model; format: in vivo; conditions: treated every other day for 2 weeks
[11] = system: p53 in Saos2 cells; experiment: p53 activity in Saos2 cells transfected with p53 constructs (qPCR); format: cell-based
Protocol: FIG. 9A a schematic of wild type P53 and deleted regulatory region p53 (p53 reg). FIG. 9[…] of procedure. Saos2 cells (p53-null cells) transiently transfected with p53 constructs and were treated with vehicle or 20 μM TFP for 24 hours. TFP activity on p53 was assessed by the ability of TFP to reduce p21 mRNA levels measured by qPCR. FIG. 9C is a graph of p21 RNA expression. Since our compound decreases p53 activity, we wanted to determine the region of p53 is responsible for CaM inhibitor activity. […] Next, the c-terminal 30 amino acids from p53 (363-393) were removed. This construct is p53-reg. […] FIGS. 11A to 11C are schematics and graphs which indicate that p53 S392 phhosphomimetic prevents TFP from reducing p53 activity. To confirm the importance of the ability of CaM inhibitors to block the phosphorylation of p53, we created phosphomimetic p53 by replacing […], which mimics constitutive phosphorylation. We also generated a control phosphomimetic p53 where […]. This mutant should have no effect on the ability of TFP to reduce p53 activity. FIG. 11A is a schematic of experiment used to test these mutants, we transiently transfected, WT p53, […] and […] into Saos2 cells and treated them with vehicle or TFP. To assess p53 activity, we examined p21 and MDM2 mRNA levels. FIG. 11B is a graph of p21 Expression. FIG. 11C is a graph of MDM2 mRNA expression. […] Confirming that blocking the S392 phosphorylation is important for the activity of TFP.

[12] = system: 293T cells with RPS19 shRNA; experiment: phosphorylation in 293T cells with RPS19 shRNA; format: cell-based, human; conditions: for phosphorylation of p70S6K: during ribosomal protein deficiency
From the text: FIGS. 17A to 17C are scehmatics and gels that indicate CaM and Chk2 inhibitors block phosphorylation of p70S6K selectively during RP deficiency. FIG. 17A schematic, we used 293T cells, and induced ribosomal protein deficiency using shRNA for RPS19 or Luc for control. […] ERK phosphorylation is increased by these inhibitors, which is also seen with RSK inhibitors. FIG. 17C a gel of the effect of Luc and […] shRNA on phosphorylated S392. […] RSK inhibitors increase ERK phosphorylation through a negative feedback loop. So TFP and BML similarly affect ERK in the same manner.

[13] = system: RPS19 deficient cord blood derived CD34+ cells; experiment: human in vitro model of DBA: cord blood CD34+ cells with RPS19 shRNA, erythroid differentiation; format: cell-based
[14] = system: p53 phosphorylation in 293T cells; experiment: mass spectrometry of p53 post-translational modifications in 293T cells; format: cell-based; conditions: 3 hours; for percentage of peptides containing phosphorylated serine 392 of p53: WT-p53-GFP
Protocol: FIGS. 10A to 10C show schematics, graphs and gels that indicate CaM and Chk2 inhibitors reduce S392 phosphorylation. FIG. 10A is a schematic of conserved regulatory region phosphorylation sites. FIG. 10B are graphs of an unbiased mass spectrometry analysis looking for post-translational modifications of p53 altered in the presence of the CaM inhibitor TFP or the Chk2 inhibitor, BML. 293T cells were transfected with WT-p53 tagged with GFP and treated with TFP or BML for 3 hours. P53 was immunoprecipitated using an antibody against GFP and was submitted for mass spec analysis. […] By two different mass spec methods, either conventional mass spec or by TMT tagging of the peptide we found in both cases the percentage of peptides containing phosphorylated serine 392 was reduced in TFP and BML treated samples (FIG. 10B). It was also noted that this serine is conserved in both zebrafish and mouse (FIG. 10A). FIG. 10C is a Western Blot that indicates phosphorylation decrease.

[15] = system: Raf; conditions: upstream kinase; cited from earlier work
[16] = system: PKC; conditions: upstream kinase; cited from earlier work
[17] = system: MEK; conditions: upstream kinase; cited from earlier work
[18] = target: p70S6K (Homo sapiens, UniProt P23443); experiment: in vitro kinase profiling (Thermo Fisher SelectScreen), p70S6K; format: biochemical
From the text: We asked if CaM and Chk2 inhibitors are blocking specific kinases. The known kinases that phosphorylate S392 are CK2 and p38. […] Thus, the question became what is TFP inhibiting upstream? Is it inhibiting a kinase that phosphorylates S392? We submitted CaM and Chk2 inhibitors for Kinase profiling using Thermo Fisher's SelectScreen.

[19] = Saos2 cells with WT p53 or S15D p53

Chain of RSK4 (Q9UK32 whole entry): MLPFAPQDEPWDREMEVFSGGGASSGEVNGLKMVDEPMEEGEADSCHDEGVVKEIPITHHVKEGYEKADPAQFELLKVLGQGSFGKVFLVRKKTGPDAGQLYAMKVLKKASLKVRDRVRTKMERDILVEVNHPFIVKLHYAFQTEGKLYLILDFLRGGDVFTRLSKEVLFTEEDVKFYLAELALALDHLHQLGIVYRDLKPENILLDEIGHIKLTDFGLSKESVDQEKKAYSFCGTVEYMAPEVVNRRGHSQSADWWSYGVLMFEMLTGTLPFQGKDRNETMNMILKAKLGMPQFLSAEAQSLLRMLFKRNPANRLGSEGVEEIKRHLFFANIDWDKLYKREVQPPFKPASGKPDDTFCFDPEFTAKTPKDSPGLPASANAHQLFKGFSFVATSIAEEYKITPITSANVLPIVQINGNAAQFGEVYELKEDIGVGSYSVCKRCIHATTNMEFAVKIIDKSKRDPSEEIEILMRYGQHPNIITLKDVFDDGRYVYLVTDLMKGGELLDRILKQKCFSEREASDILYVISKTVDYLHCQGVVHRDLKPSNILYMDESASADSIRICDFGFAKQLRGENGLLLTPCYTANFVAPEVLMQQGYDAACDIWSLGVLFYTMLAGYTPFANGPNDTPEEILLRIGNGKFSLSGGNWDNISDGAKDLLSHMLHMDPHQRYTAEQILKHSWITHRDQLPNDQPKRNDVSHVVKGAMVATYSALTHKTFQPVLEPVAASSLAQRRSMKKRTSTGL
Chain of RSK1 (Q15418 whole entry): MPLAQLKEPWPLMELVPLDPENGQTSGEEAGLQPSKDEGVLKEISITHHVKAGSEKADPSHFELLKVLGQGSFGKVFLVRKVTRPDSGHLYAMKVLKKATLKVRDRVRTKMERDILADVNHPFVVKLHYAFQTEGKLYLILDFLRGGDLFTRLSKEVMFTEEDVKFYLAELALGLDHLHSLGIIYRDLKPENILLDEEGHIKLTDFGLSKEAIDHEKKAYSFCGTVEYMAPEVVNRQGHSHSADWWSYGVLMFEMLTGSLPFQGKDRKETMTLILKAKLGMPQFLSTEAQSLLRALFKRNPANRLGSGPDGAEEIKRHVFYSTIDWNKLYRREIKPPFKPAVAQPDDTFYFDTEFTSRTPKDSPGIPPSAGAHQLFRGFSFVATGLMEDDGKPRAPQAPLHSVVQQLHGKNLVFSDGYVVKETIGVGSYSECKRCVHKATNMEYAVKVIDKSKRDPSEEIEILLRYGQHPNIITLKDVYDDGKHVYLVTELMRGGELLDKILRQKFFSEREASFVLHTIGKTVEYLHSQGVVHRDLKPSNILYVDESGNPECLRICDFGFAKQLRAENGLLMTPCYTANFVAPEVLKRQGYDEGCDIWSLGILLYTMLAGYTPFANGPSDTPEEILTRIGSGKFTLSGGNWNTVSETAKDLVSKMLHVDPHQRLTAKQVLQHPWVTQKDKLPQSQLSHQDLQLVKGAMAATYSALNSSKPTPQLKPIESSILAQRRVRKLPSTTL
Chain of RSK3 (Q15349 whole entry): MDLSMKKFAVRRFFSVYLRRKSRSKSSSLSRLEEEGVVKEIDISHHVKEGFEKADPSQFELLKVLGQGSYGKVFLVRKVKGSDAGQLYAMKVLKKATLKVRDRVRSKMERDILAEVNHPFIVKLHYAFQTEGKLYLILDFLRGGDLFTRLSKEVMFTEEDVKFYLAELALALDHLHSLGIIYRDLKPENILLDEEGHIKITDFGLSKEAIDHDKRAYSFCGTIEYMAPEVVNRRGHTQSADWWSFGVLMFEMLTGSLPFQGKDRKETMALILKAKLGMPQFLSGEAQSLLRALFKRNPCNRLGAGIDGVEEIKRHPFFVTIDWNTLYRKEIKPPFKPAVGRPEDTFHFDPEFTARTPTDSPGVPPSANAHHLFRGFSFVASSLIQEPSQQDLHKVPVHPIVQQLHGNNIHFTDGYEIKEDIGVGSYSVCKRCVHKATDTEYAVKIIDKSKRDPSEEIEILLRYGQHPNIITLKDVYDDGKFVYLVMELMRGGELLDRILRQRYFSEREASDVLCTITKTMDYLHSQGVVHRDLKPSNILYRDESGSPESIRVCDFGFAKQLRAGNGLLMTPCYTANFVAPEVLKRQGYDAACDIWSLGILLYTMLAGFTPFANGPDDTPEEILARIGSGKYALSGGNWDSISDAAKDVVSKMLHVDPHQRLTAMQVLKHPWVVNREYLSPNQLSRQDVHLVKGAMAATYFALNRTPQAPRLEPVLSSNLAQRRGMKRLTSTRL
Chain of RSK2 (P51812 whole entry): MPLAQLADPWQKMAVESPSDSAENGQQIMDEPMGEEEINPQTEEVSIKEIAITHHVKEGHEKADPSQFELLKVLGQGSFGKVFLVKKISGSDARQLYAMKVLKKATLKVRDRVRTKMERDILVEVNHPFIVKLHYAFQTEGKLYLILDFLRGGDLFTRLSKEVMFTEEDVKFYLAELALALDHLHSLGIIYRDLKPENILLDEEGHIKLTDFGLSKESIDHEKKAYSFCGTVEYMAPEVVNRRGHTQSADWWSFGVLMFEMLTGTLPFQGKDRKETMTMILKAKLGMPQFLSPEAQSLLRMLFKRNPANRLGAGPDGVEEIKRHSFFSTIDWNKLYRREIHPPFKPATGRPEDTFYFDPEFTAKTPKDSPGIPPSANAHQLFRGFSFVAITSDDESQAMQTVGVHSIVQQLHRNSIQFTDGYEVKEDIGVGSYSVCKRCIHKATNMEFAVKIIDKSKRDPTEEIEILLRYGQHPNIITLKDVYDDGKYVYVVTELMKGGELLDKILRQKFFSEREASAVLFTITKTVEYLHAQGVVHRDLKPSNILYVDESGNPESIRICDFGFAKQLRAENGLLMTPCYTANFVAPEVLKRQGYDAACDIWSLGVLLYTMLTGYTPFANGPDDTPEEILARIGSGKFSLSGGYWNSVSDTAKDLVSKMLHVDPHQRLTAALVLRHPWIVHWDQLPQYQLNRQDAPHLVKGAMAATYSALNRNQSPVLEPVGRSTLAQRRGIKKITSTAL
Chain of p70S6K (P23443 whole entry): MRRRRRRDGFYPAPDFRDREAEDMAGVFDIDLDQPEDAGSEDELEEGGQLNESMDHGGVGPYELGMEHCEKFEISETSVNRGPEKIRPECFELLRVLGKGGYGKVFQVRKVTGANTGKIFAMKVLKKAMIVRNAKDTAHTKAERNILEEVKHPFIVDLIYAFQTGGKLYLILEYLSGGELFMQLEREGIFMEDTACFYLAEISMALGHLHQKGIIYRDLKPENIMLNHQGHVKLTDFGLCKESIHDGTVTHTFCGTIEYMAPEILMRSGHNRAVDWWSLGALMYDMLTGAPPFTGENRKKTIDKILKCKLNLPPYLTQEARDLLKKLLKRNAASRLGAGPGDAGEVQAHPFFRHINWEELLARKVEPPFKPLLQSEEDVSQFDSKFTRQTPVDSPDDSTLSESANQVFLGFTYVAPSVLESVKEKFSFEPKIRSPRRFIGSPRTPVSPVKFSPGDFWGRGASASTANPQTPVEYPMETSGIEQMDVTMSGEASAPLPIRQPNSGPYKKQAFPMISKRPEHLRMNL

For `OCCN1CCN(CCCN2c3ccccc3Sc3ccc(C(F)(F)F)cc32)CC1` [FLU, fluphenazine], the “hemoglobin (Hb) in rps29−/− embryos” value [1] was “rescues better than either RSK or p70S6K inhibitor alone” and the “hemoglobin (Hb) in rps29−/− embryos” value ([1]; listed as fluphenazine) was “increase Hb”.
With `CN1CCC(N(CCCN2c3ccccc3Sc3ccc(Cl)cc32)CCCN2c3ccccc3Sc3ccc(Cl)cc32)CC1` [compound 089] the “Hb increase at low concentrations” value [1] was “increase Hb at lower concentrations than the positive control phenothiazine”, the “Hb increase at low concentrations” value ([1]; listed as DB-4-089) was “increased Hb at low concentrations” and the “rescuing morphological defects and hematopoietic and endothelial defects” value [2] was “work particularly well”. For the same compound, the “percentage of erythroid precursor cells (CD71+) compared to DMSO” value (“percentage of erythroid precursor cells” for short) [3] was “increased the percentage of erythroid precursor cells”, the “percentage of erythroid precursor cells” value ([3]; listed as DB-4-089) was “increased eyrthroid differentiation” and the “zebrafish movement / swimming behavior vs DMSO” value [4] was “altered behavior; also recorded: alters movement”. For the same compound, the “toxicity in behavior assay” value ([4]; highest dose) was “toxic at the highest dose”.
In the case of `CCc1cncnc1N1CCN(Cc2nc3cc(C(F)(F)F)ccc3[nH]2)CC1` [PF, 2-[[4-(5-Ethylpyrimidin-4-yl)piperazin-1-yl]methyl]-5-(trifluoromethyl)-1H-benzo[d]imidazole], the “hemoglobin (Hb) in rps29−/− embryos” value [1] is reported as “increase Hb”.
For `CC(C)CCC1c2nc(Nc3cc(F)c(O)c(F)c3)ncc2N(C)C(=O)C1C` (centres unmarked) [BI-D1870], the IC50 [5] is given as 31 nM, the IC50 [6] is given as 18 nM and the IC50 [7] is given as 24 nM. The IC50 [8] was 15 nM.
With `CN1CCN(CCCN2c3ccccc3Sc3ccc(C(F)(F)F)cc32)CC1` [TFP, trifluoperazine] the P-RPS6 [9] was “reduces”, the “P-p53 S392” value [9] was “reduces” and the p53 total levels [9] was “reduces”. For the same compound, the hemoglobin levels [10] was “significantly increases”, the “p21 mRNA levels (p53 activity) in bone marrow” value [10] was “reduced; also recorded: decreases” and the “red blood cell number” value [10] was “significantly increases”. For the same compound, the “ability of p53 to form a tetramer” value [11] was “did not inhibit”, the “MDM2 mRNA levels” value [11, 19] was “able to reduce” and the “p21 mRNA levels” value [11, 19] was “able to reduce”. The “MDM2 mRNA levels” value ([11]; Saos2 cells with p53 S392D) was “unable to reduce”, the “p21 mRNA levels” value ([11]; Saos2 cells with p53 S392D) was “unable to reduce” and the “hemoglobin (Hb) in rps29−/− embryos” value [1] was “rescue Hb”. For the same compound, the ERK phosphorylation [12] was “increased”, the “phosphorylation of p70S6K” value [12] was “selectively inhibited” and the “% erythroid precursor cells (CD71+) on day 12” value [13] was “increases”. The “p21 mRNA levels” value [13] was “dose dependently decreases”, the “percentage of peptides containing phosphorylated Serine 6 of p53” value [14] was “did not change” and the “percentage of peptides containing phosphorylated Serine 315 of p53” value [14] was “did not change”. The “percentage of peptides containing phosphorylated serine 392 of p53” value [14] was “reduced”.
For `CC(C)(C)OC(=O)CCN1CCN(CCCN2c3ccccc3Sc3ccc(Cl)cc32)CC1` [compound 083], the “Hb increase at low concentrations” value [1] was “did not increase Hb at the same low concentrations”.
In the case of “3-[(3,4-Di-O-acetyl-6-deoxy-α-L-mannopyranosyl)oxy]-5,7-dihydro-2-(4-hydroxyphenyl)-4H-1benzopyran-4-one [SL]”, the “inhibition of Raf” value [15] is given as “Does not inhibit”, the “inhibition of PKC” value [16] is given as “Does not inhibit” and the “hemoglobin (Hb) in rps29−/− embryos” value [1] is given as “increase Hb”. The “inhibition of MEK” value [17] was “Does not inhibit”.
With `Clc1ccc2c(c1)N(CCCN1CCN(CCNCCCOCCOCCOCCCNC(c3ccccc3)(c3ccccc3)c3ccccc3)CC1)c1ccccc1S2` [221E] the “zebrafish movement / swimming behavior vs DMSO” value [4] was “more erratic activity”.
For `Clc1ccc2c(c1)N(CCCN1CCOCC1)c1ccccc1S2` [compound 086], the “Hb increase at low concentrations” value [1] was “did not increase Hb at the same low concentrations”.
In the case of `NC1=N/C(=C2/CCNC(=O)c3cc4[nH]c5ccccc5c4cc32)C(=O)N1` [III], the “hemoglobin (Hb) in rps29−/− embryos” value [1] is reported as “Resues Hb; also recorded: rescue Hb” and the “percent inhibition of in vitro kinase activity, p70S6K” value [18] is reported as “inhibition”.
For `NCCNS(=O)(=O)c1cccc2c(Cl)cccc12` [A-3], the “hemoglobin (Hb) in rps29−/− embryos” value [1] was “rescue Hb”.
For `O=C(O)CCC(=O)NCCN1CCN(CCCN2c3ccccc3Sc3ccc(Cl)cc32)CC1` [PerSucc], the “hemoglobin (Hb) in rps29−/− embryos” value [1] was “dramatic rescue of Hb expression; also recorded: increase Hb”, the “rescuing morphological defects and hematopoietic and endothelial defects” value [2] was “work particularly well” and the “zebrafish movement / swimming behavior vs DMSO” value [4] was “less active and rest more than DMSO treated fish”.
With `CC(C)NCCCN1c2ccccc2Sc2ccc(Cl)cc21` [088-3] the “Hb increase at low concentrations” value [1] was “increase Hb at lower concentrations than the positive control phenothiazine” and the “rescuing morphological defects and hematopoietic and endothelial defects” value [2] was “work particularly well”.
For `CC(C)N(CCCN1c2ccccc2Sc2ccc(Cl)cc21)CCCN1c2ccccc2Sc2ccc(Cl)cc21` [088-2], the “Hb increase at low concentrations” value [1] was “increase Hb at lower concentrations than the positive control phenothiazine”, the “rescuing morphological defects and hematopoietic and endothelial defects” value [2] was “work particularly well” and the “percentage of erythroid precursor cells” value [3] was “increased the percentage of erythroid precursor cells”.
For `Clc1ccc2c(c1)N(CCCN1CCCCC1)c1ccccc1S2` [compound 084], the “Hb increase at low concentrations” value [1] was “did not increase Hb at the same low concentrations”.
In the case of `NCCCCCCNS(=O)(=O)c1cccc2c(Cl)cccc12` [W-7], the “hemoglobin (Hb) in rps29−/− embryos” value [1] is reported as “rescue Hb”.
For `NC(=O)c1ccc2nc(-c3ccc(Oc4ccc(Cl)cc4)cc3)[nH]c2c1` [BML], the ERK phosphorylation [12] was “increased”, the “phosphorylation of p70S6K” value [12] was “selectively inhibited” and the “percentage of peptides containing phosphorylated Serine 6 of p53” value [14] was “did not change”. The “percentage of peptides containing phosphorylated Serine 315 of p53” value [14] was “did not change” and the “percentage of peptides containing phosphorylated serine 392 of p53” value [14] was “reduced”.
With `OCCN1CCN(CCCN2c3ccccc3Sc3ccc(Cl)cc32)CC1` [perphenizine] the “hemoglobin (Hb) in rps29−/− embryos” value [1] was “increase Hb”.
